Tested on: SKBr3 cell Hsp90
Assay: EC50 for Hsp90 binding in SKBr3 cell lysate
Settings: read-out: EC50, binding to SKBr3 cell Hsp90

| Compound | EC50 |
| --- | --- |
| COc1ccc(-c2ccco2)c(Sc2nc3c(N)ncnc3n2CCNCC(C)(C)C)c1 [Compound 7C-13, 8-(2-(furan-2-yl)-5-methoxyphenylthio)-9-(2-(neopentylamino)ethyl)-9H-purin-6-amine] | 0.084 µM |
| CC(C)NCCCn1c(Sc2cc3c(cc2-c2ccnn2C)OCO3)nc2c(N)ncnc21 [Compound 4G-4, 9-(3-(isopropylamino)propyl)-8-(6-(1-methyl-1H-pyrazol-5-yl)benzo[d][1,3]dioxol-5-ylthio)-9H-purin-6-amine] | > 0.3 µM |
| COc1ccc(-c2cc[nH]n2)c(Sc2nc3c(N)ncnc3n2CCNCC(C)(C)C)c1 [Compound 7E-6, 8-(5-methoxy-2-(1H-pyrazol-3-yl)phenylthio)-9-(2-(neopentylamino)ethyl)-9H-purin-6-amine] | 0.032 µM |
| CC(C)NCCCn1c(Sc2cc3c(cc2C2C=COC2)OCO3)nc2c(N)ncnc21 (centres unmarked) [Compound 4C-41, 8-(6-(2,3-dihydrofuran-3-yl)benzo[d][1,3]dioxol-5-ylthio)-9-(3-(isopropylamino)propyl)-9H-purin-6-amine] | 2.08 µM |
| CC(C)NCCCn1c(Sc2cc3c(cc2-c2cc[nH]c2)OCO3)nc2c(N)ncnc21 [Compound 4H-3, 8-(6-(1H-pyrrol-3-yl)benzo[d][1,3]dioxol-5-ylthio)-9-(3-(isopropylamino)propyl)-9H-purin-6-amine] | 0.161 µM |
| CC(C)NCCCn1c(Sc2cc3c(cc2-c2ccc(N(C)C)cc2)OCO3)nc2c(N)ncnc21 [Compound 4A-5, 8-(6-(4-(dimethylamino)phenyl)benzo[d][1,3]dioxol-5-ylthio)-9-(3-(isopropylamino)propyl)-9H-purin-6-amine] | 2.52 µM |
| COc1ccc(-c2cc3c(cc2Sc2nc4c(N)ncnc4n2CCCNC(C)C)OCO3)cc1 [Compound 4A-6, 9-(3-(isopropylamino)propyl)-8-(6-(4-methoxyphenyl)benzo[d][1,3]dioxol-5-ylthio)-9H-purin-6-amine] | 1.03 µM |
| CC(C)(C)CNCCn1c(Sc2cc3c(cc2-c2cc[nH]n2)OCO3)nc2c(N)ncnc21 [Compound 4G-9, 8-(6-(1H-pyrazol-3-yl)benzo[d][1,3]dioxol-5-ylthio)-9-(2-(neopentylamino)ethyl)-9H-purin-6-amine] | 0.0055 µM |

From US10172863B2, “Purine derivatives useful as HSP90 inhibitors” (Sloan-Kettering Institute for Cancer Research, priority 2009, dated 2019)
